Here are results for three molecules from article PMC7048242 (Cancer letters, 2018).

Data set [1] has as its system S100B. The note with it: cited from earlier work.
Data set [2] concerns S100B. Nature of the data set: S100B expression in GL261 cells. The class given is cell-based, mouse.
For the next data set, the system named is S100B promoter. Nature of the data set: HTS cell-based S100B promoter-driven luciferase reporter assay. Details: species or system human.
In data set [3] the test system is tumor-associated myeloid-derived cells.
For data set [4], the system named is intracranial GL261 gliomas.
Data set [5] concerns tumor-associated leukocytes. The note with it: 30 mg/kg/14 days, LPS 0.5 μg/ml 24 h, q-PCR.
Another data set relates to U251 glioma cells. The note with it: 5 μM, U251 (not shown).
Another data set deals with K-Luc cells. The note with it: K-Luc cell line.
A further data set can be described thus: in vivo. The following applies: C57BL/6, mouse, po, 30 mg/kg.
A further data set deals with CCL2. The note with it: GL261 cells, 48 h incubation.
[6] abbreviates: contralateral brain tissue without tumor.

Consider `CNCCC(Oc1ccc(C(F)(F)F)cc1)c1ccccc1` (centres unmarked) [fluoxetine], for which the “S100B expression in rat astrocytes in vivo” value in the data set with S100B [1] is reported as “stimulated”.

Regarding `NC[C@H](O)c1ccc(O)c(O)c1` [NE, norepinephrine], the “S100B expression in GL261” value in the data set on S100B [2] (NE added every 3 h, 24 h, Western analysis) was “induced”. The “S100B promoter activity in U251-Luc” value with S100B promoter (NE added every 3 h, luciferase measured in 12 h) is listed as “induced”.

As usually defined, the IC50 is the concentration needed to halve the response being measured. On to `CNCC[C@H](Oc1cccc2ccccc12)c1cccs1` [Duloxetine], for which the S100B expression result in the data set on S100B [2] (GL261 cells, low concentrations, 24 h (qPCR), 48 h (Western, ELISA, immunostains)) is reported as “inhibited”. The “Proportion of macrophages, monocytic myeloid-derived cells and neutrophils in GL261 gliomas” value in [3] (30 mg/kg x 14 days, FACS) was “decreased”. The “Pathway Scores for innate and adaptive immunity processes in tumors” value in data set [3] (Nanostring, GL261 tumors (not in TME)) is reported as “significantly higher”. In addition, the Cell proliferation result in the data set on GL261-Luc cells (GL261, Dul concentration < 10 μM) is reported as “not significantly inhibited”. For the same molecule, the LD50 with GL261-Luc cells (GL261-Luc cells, 24 h incubation) was determined as 25.1 µM. Also, the Tumor growth result in data set [4] (i.c. GL261, 14 days treatment started a day after implantation) is “significantly decreased”. In data set [4] (i.c. GL261, high doses (30 mg/kg/14 days), started a day after implantation), the Animal survival result is “improved”. Further, in data set [5], the “Il-1β expression by tumor-associated leukocytes” value was “higher levels”; the “Il-6, Il-10 and Tgf-β expression by tumor-associated leukocytes” value is reported as “lower levels”. Besides, in the data set with U251 glioma cells, the Cytotoxicity result is given as “without causing cytotoxicity”. Moreover, the “Cell proliferation in vitro” value with K-Luc cells is on record as “modest inhibitory effect”. Further, in “in vivo” (GL261 tumor), the concentration at 0.5 h stood at 48.8 µM, the concentration at 2 h turned out to be 70.8 µM, the concentration at 6 h was determined as 24.9 µM and the concentration at 12 h came out at 10 µM. In the data set “in vivo” (setting [6]), this molecule came in with a concentration at 0.5 h of 36.3 µM, a concentration at 2 h of 65.9 µM, a concentration at 6 h of 24.2 µM and a concentration at 12 h of 9.64 µM. In “in vivo” (plasma), the concentration at 0.5 h was found to be 3.04 µM, the concentration at 2 h was 2.12 µM, the concentration at 6 h came to 1.28 µM and the concentration at 12 h is 0.39 µM. The S100B promoter activity result with S100B promoter (5 μM, luciferase measured 24 h after treatment) is given as “inhibited”. The molecule further showed an IC50 with S100B promoter (Homo sapiens, U-251) of 10 µM. Further, in the data set on S100B, RAGE, CCL2 (30 mg/kg, two weeks), the “CCL2 expression in GL261 gliomas (immunohistochemistry)” value was “decrease”. Also, the “Total brain S100B, RAGE or CCL2 protein levels” value in the data set on S100B, RAGE, CCL2 (GL261 tumor-bearing mice, 5 or 30 mg/kg/14 days, tumor and peritumoral tissue) is recorded as “did not significantly inhibit”. The “Serum S100B and soluble RAGE (sRAGE) levels” value in the data set on S100B, RAGE, CCL2 (GL261 tumor-bearing mice, two-week treatment) was “Nor mouse serum S100B and soluble RAGE (sRAGE) levels changed”. Further, the “S100B and RAGE in i.c. GL261 tumors (histochemistry)” value in the data set on S100B, RAGE, CCL2 (two-week treatment, tumor cells) is reported as “effectively inhibited”. Besides, the “Overall tumor levels of S100B and RAGE” value with K-Luc gliomas (K-Luc tumor-bearing mice, daily for 14 days) is recorded as “did not significantly change”. In the data set with K-Luc gliomas (two-week treatment), the “Growth of K-Luc tumors” value is on record as “did not significantly inhibit”. Moreover, the CCL2 expression entry in the data set with CCL2 is listed as “inhibited”.
